Measured values as given in patent US6048892A, “Ester compound pesticide containing thereof” (Sumitomo Chemical Company, Limited, priority 1999, dated 2000).

What was measured:
[1] = Toxicity Test: acute oral LD50; details: rat, in vivo, corn oil, fasted male 7-week old rats, after 7 days
Experimental: After subjecting the rats to a twenty-hour fasting, 0.1 ml of the diluted solution per 10 g weight was forcibly applied into the stomach of four male 7-week old rats. The rats were given food and water four hours after the application and thereafter regularly fed and watered, and kept in a cage. After 7 days, the mortality was examined for the rats and LD50 was calculated.

[2] = system: webbing clothes moth (Tineola bisselliella); assay: Biological Test 12: topical application to larvae of webbing clothes moth, mortality and fabric damage; format: in vivo
Experimental: Each of the present compounds diluted with acetone to a predetermined concentration was applied to ten middle instar larvae of webbing clothes moth (Tineola bisselliella) at the central part of the back so as to give the active ingredient in a dose of 3 μg/insect. A wool muslin fabric (2 cm×2 cm in size) was given to the webbing clothes moths as the food. After 7 days, the mortality and the degree of damage of the wool muslin fabric by the moths were examined (two replicate).

[3] = system: tobacco cutworm (Spodoptera litura); assay: Biological Test 1: mortality of larvae on impregnated artificial bait; format: in vivo; details: 144 h, read-out: mortality of the larvae
Experimental: Emulsifiable concentrates were prepared for each of the present compounds according to the formulation example 1. Thirteen grams of artificial bait for tobacco cutworm (Spodoptera litura) were placed in a polyethylene cup (diameter: 11 cm) and impregnated with 2 ml of the 500 ppm emulsion prepared by diluting the emulsifiable concentrates with water. Ten 4-instar larvae of Spodoptera litura were put in the polyethylene cup. After 6 days, the mortality of the larvae was examined.

[4] = system: common mosquitoes (Culex pipiens pallens); assay: Biological Test 6: mortality of last-instar mosquito larvae in water; format: in vivo; details: 24 h, read-out: mortality of the common mosquitoes
Experimental: 0.7 ml of aqueous emulsion, obtained by diluting emulsifiable concentrate prepared for each of the present compounds according to the formulation example 1, was added to 100 ml of ion-exchanged water (concentration of active ingredient: 3.5 ppm). Twenty last-instar larvae of common mosquitoes (Culex pipiens pallens) were left in the water. After one day, the mortality of the common mosquitoes was examined.

For `Cc1ccc(COC(=O)[C@@H]2[C@H](/C=C(\Cl)C(F)(F)F)C2(C)C)o1` (relative stereo) [Compound (1), 5-methyl-2-furfuryl (1RS,cis)-3-(Z-2-chloro-3,3,3-trifluoroprop-1-enyl)-2,2-dimethylcyclopropanecarboxylate], the LD50 at 168 h [1] was 300 mg/kg, the “degree of damage of the wool muslin fabric” value ([2]; 3 μg/insect, after 7 days) was “no damage” and the mortality at 0.003 mg ([2]; Tineola bisselliella, 168 h) was 100%. The mortality at 500 µg/mL [3] was 100% and the mortality at 3.5 ppm [4] was no less than 90%.
